Measurements: patent US4670457A, “2H-benzofuran-3-one-derivatives and process for their preparation” (Farmitalia Carlo Erba, S.p.A., priority 1978, dated 1987)

assay: Seven days indicative acute toxicity after oral administration; conditions: mouse, in vivo, mice
Protocol: The tested compounds were administered per os (p.o.) 15 minutes before the administration of the antigen: at least 6 rats were used for each dose. Seven days indicative acute toxicity after oral administration was assessed for the compounds of the invention, for example, a LD50 >800 mg/kg in mice was obtained for all the following compounds of the invention: […]

Structure (SMILES)	LD50 at 168 h [mg/kg]
CC(C)Oc1ccccc1C=C1Oc2ccc(C(=O)O)cc2C1=O [5-carboxy-2-(2'-isopropoxy-benzylidene)-2H-benzofuran-3-one]	> 800
COc1ccccc1C=C1Oc2ccc(C(=O)O)cc2C1=O [5-carboxy-2-(2'-methoxy-benzylidene)-2H-benzofuran-3-one]	> 800
O=C(O)c1ccc2c(c1)C(=O)C(=Cc1cccs1)O2 [5-carboxy-2-(2'-thenylidene)-2H-benzofuran-3-one]	> 800
COc1ccc(C=C2Oc3ccc(C(=O)O)cc3C2=O)cc1OC [5-carboxy-2-(3',4'-dimethoxy-benzylidene)-2H-benzofuran-3-one]	> 800
CC(C)Oc1cccc(C=C2Oc3ccc(C(=O)O)cc3C2=O)c1 [5-carboxy-2-(3'-isopropoxy-benzylidene)-2H-benzofuran-3-one]	> 800
COc1cccc(C=C2Oc3ccc(C(=O)O)cc3C2=O)c1 [5-carboxy-2-(3'-methoxy-benzylidene)-2H-benzofuran-3-one]	> 800
COc1ccc(C=C2Oc3ccc(C(=O)O)cc3C2=O)cc1 [5-carboxy-2-(4'-methoxy-benzylidene)-2H-benzofuran-3-one]	> 800
COc1cc(C=C2Oc3ccc(C(=O)O)cc3C2=O)cc(OC)c1OC [K 13364, 5-carboxy-2-(3',4',5'-trimethoxy-benzylidene)-2H-benzofuran-3-one]	> 800
COc1ccc(OC)c(C=C2Oc3ccc(C(=O)O)cc3C2=O)c1 [K 13383, 5-carboxy-2-(2',5'-dimethoxy-benzylidene)-2H-benzofuran-3-one]	> 800
COc1ccc(C=C2Oc3ccc(C(=O)O)cc3C2=O)c(OC)c1OC [K 13422, 5-carboxy-2-(2',3',4'-trimethoxy-benzylidene)-2H-benzofuran-3-one]	> 800
COc1ccc(OC(C)C)c(C=C2Oc3ccc(C(=O)O)cc3C2=O)c1 [K 13432, 5-carboxy-2-(2'-isopropoxy-5'-methoxy-benzylidene)-2H-benzofuran-3-one]	> 800
